Assay results published in patent US20260078158A1, “COMPOSITIONS COMPRISING CXCL10-DERIVED PEPTIDES AND METHODS OF USE THEREOF” (priority 2022, published 2026).
Read-outs that look alike come from different tables or passages of the source.

Columns and labels:
[1] = test system: Enterococcus faecalis; assay: microbe, parasite or virus in culture; assay type: cell-based; settings: Enterococcus faecalis (2 isolates)
[2] = test system: Enterococcus faecium; assay: microbe, parasite or virus in culture; assay type: cell-based; settings: Enterococcus faecium (3 isolates)
[3] = test system: Acinetobacter baumannii-calcoaceticus complex; assay: microbe, parasite or virus in culture; assay type: cell-based; settings: Acinetobacter spp. (5 isolates)
[4] = test system: Escherichia coli; assay: microbe, parasite or virus in culture; assay type: cell-based; settings: Escherichia coli (5 isolates)
[5] = test system: E. cloacae species complex; assay: microbe, parasite or virus in culture; assay type: cell-based, Enterobacter cloacae; settings: Enterobacter spp. (5 isolates)
[6] = test system: Pseudomonas aeruginosa; assay: microbe, parasite or virus in culture; assay type: cell-based; settings: Pseudomonas aeruginosa (5 isolates)
[7] = test system: Streptococcus pneumoniae; assay: microbe, parasite or virus in culture; assay type: cell-based; settings: Streptococcus pneumoniae (5 isolates)
[8] = test system: Staphylococcus aureus; assay: microbe, parasite or virus in culture; assay type: cell-based; settings: relative to P194-acetate; Staphylococcus aureus (5 isolates)
[9] = test system: Klebsiella pneumoniae; settings: Klebsiella pneumoniae (5 isolates)

Sequence | MIC50 fold change ([1]; relative to P194-acetate) | MIC50 fold change ([2]; relative to P194-acetate) | MIC50 fold change ([3]; relative to P194-acetate) | MIC50 fold change ([4]; relative to P194-acetate) | MIC50 fold change ([5]; relative to P194-acetate) | MIC50 fold change ([6]; relative to P194-acetate) | MIC50 fold change ([7]; relative to P194-acetate) | MIC50 fold change [8] | MIC50 fold change ([9]; relative to P194-acetate) | MIC50 fold change ([1]; relative to D8-acetate) | MIC50 fold change ([2]; relative to D8-acetate) | MIC50 fold change ([3]; relative to D8-acetate) | MIC50 fold change ([4]; relative to D8-acetate) | MIC50 fold change ([5]; relative to D8-acetate) | MIC50 fold change ([6]; relative to D8-acetate) | MIC50 fold change ([9]; relative to D8-acetate) | MIC50 fold change ([7]; relative to D8-acetate)
RAVRCRCI [Peptide P194-T2A] | 4 | 2 | 0.5 | 0.5 | 0.5 | >2 | 2 | 2 | 2 | – | – | – | – | – | – | – | –
RAVRCTCI [Peptide D8-T2A] | – | – | – | – | – | – | – | – | – | 2 | 2 | 2 | 2 | 1 | >2 | 2 | –
RTARCTCI [Peptide D8-V3A] | – | – | – | – | – | – | – | – | – | >4 | 8 | 32 | 16 | >4 | >2 | >8 | –
RTVACTCI [Peptide D8-R4A] | – | – | – | – | – | – | – | – | – | >4 | 8 | >32 | >16 | >4 | >2 | >8 | –
RTVRATCI [Peptide D8-C5A] | – | – | – | – | – | – | – | – | – | >4 | >16 | >32 | >16 | >4 | >2 | >8 | –
RTVRCACI [Peptide D8-T6A] | – | – | – | – | – | – | – | – | – | 1 | 1 | 2 | 1 | 0.5 | 2 | 2 | 1
RTVRCTAI [Peptide D8-C7A] | – | – | – | – | – | – | – | – | – | >4 | 16 | >32 | >16 | >4 | >2 | >8 | –
RTVRCTCA [Peptide D8-I8A] | – | – | – | – | – | – | – | – | – | 4 | 4 | 2 | 4 | 1 | 2 | 4 | –
